Experimental data: US20240336608A1, “IL4I1 INHIBITORS AND METHODS OF USE” (Merck Sharp & Dohme LLC, priority 2023, published 2024)

Target: T1, recombinant IL4I1 (Homo sapiens, UniProt Q96RQ9)
T1 construct: purchased R&D Systems 5684-AO-020
T1 sequence (Q96RQ9 22-567): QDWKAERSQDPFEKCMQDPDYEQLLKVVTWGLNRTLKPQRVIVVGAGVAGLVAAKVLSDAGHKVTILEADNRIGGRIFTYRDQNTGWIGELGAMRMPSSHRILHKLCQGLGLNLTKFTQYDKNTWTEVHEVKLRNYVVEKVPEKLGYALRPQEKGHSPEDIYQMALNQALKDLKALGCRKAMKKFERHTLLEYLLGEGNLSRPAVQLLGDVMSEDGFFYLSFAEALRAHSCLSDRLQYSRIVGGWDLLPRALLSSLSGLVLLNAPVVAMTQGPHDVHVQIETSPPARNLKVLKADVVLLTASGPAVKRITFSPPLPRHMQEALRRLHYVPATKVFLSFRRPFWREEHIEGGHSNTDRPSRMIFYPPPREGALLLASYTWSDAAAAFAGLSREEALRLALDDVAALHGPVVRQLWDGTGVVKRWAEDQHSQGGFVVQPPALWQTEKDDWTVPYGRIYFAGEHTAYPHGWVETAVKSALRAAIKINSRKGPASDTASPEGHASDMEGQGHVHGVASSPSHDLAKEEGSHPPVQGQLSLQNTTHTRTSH
Test: IL4I1 Enzymatic Assay (Amplex Red/HRP coupled detection of H2O2, fluorescence)
Assay type: biochemical
Settings: 1 nM recombinant IL4I1; four-hour pre-incubation with compound; 1 mM each Phe, Tyr, Trp; ten-point titration
Outline: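 H2O2 output was coupled to resorufin fluorescence (ex 544/em 590) via 0.05 mM Amplex Red and 1 U/mL HRP. Substrate: Phe, Tyr, Trp at 1 mM each; enzyme 1 nM, 4 h compound pre-incubation, 120 min reaction, pH 7.0 Hepes. EC50 by nonlinear four-parameter regression, 1:3 ten-point titration.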

SMILES | EC50 [µM]
Cc1ncc(-n2cc(C(=O)NCc3nnc(-c4ccccc4)s3)nn2)c(C)n1 [Example 280, 1-(2,4-dimethylpyrimidin-5-yl)-N-((5-phenyl-1,3,4-thiadiazol-2-yl)methyl)-1H-1,2,3-triazole-4-carboxamide] | 0.859
CC1CC1n1cc(C(=O)NCc2nnc(-c3ccccc3)s2)nn1 (single isomer, unassigned) [Example 133, Cis-1-(2-methylcyclopropyl)-N-((5-phenyl-1,3,4-thiadiazol-2-yl)methyl)-1H-1,2,3-triazole-4-carboxamide] | 0.092
O=C(NCc1nnc(-c2ccccc2)s1)c1cn(CCC2CCCO2)nn1 (stereo not shown) [Example 207, N-((5-phenyl-1,3,4-thiadiazol-2-yl)methyl)-1-(2-(tetrahydrofuran-2-yl)ethyl)-1H-1,2,3-triazole-4-carboxamide] | 0.327
O=C(NCc1nnc(-c2ccccc2)s1)c1cn(C2(C(F)(F)F)CC2)nn1 [Example 153, N-((5-phenyl-1,3,4-thiadiazol-2-yl)methyl)-1-(1-(trifluoromethyl)cyclopropyl)-1H-1,2,3-triazole-4-carboxamide] | 0.593
O=C(NCc1nnc(-c2ccccc2)s1)c1csc(Cc2ccccc2)n1 [Example 16, 2-benzyl-N-((5-phenyl-1,3,4-thiadiazol-2-yl)methyl)thiazole-4-carboxamide] | 0.084
O=C(NCc1nnc(-c2ccccc2)s1)c1cn([C@@H]2C[C@@H]2C(F)F)nn1 (single isomer, unassigned) [Example 145, cis-1-(-2-(difluoromethyl)cyclopropyl]-N-[(5-phenyl-1,3,4-thiadiazol-2-yl)methyl]-1H-1,2,3-triazole-4-carboxamide] | 0.005
Cc1oc(C)c(C(=O)NCc2nnc(-c3ccccc3)s2)c1C [Example 40, 2,4,5-trimethyl-N-[(5-phenyl-1,3,4-thiadiazol-2-yl)methyl]furan-3-carboxamide] | 0.266
Cc1ccc(-n2cc(C(=O)NCc3cc(-c4ccccc4)no3)nn2)c(C)n1 [Example 234, 1-(2,6-dimethylpyridin-3-yl)-N-((3-phenylisoxazol-5-yl)methyl)-1H-1,2,3-triazole-4-carboxamide] | 0.009
CS(=O)(=O)Cn1cc(C(=O)NCc2nnc(-c3ccccc3)s2)nn1 [Example 308, 1-((methylsulfonyl)methyl)-N-((5-phenyl-1,3,4-thiadiazol-2-yl)methyl)-1H-1,2,3-triazole-4-carboxamide] | 0.075
CCC(CO)(CO)n1cc(C(=O)NCc2nnc(-c3ccccc3)s2)nn1 [Example 195, 1-(1-hydroxy-2-(hydroxymethyl)butan-2-yl)-N-((5-phenyl-1,3,4-thiadiazol-2-yl)methyl)-1H-1,2,3-triazole-4-carboxamide] | 0.532
O=C(NCc1nnc(-c2ccccc2)s1)c1cn(CCC(F)(F)F)nn1 [Example 62, N-((5-phenyl-1,3,4-thiadiazol-2-yl)methyl)-1-(3,3,3-trifluoropropyl)-1H-1,2,3-triazole-4-carboxamide] | 0.007
Cn1cc(C(=O)NCc2cc(-c3ccccc3Cl)on2)nn1 [Example 225, N-{[5-(2-chlorophenyl)-1,2-oxazol-3-yl]methyl}-1-methyl-1H-1,2,3-triazole-4-carboxamide] | 0.856
O=C(NCc1nnc(-c2ccccc2)s1)c1cn(Cc2ccno2)nn1 [Example 154, 1-(isoxazol-5-ylmethyl)-N-((5-phenyl-1,3,4-thiadiazol-2-yl)methyl)-1H-1,2,3-triazole-4-carboxamide] | 0.049
O=C(NCc1nnc(-c2ccccc2)s1)c1cn(CC(F)F)nn1 [Example 213] | 0.003
O=C(NCc1nnc(-c2ccccc2)s1)c1cn(-c2cccnc2)nn1 [Example 242, N-((5-phenyl-1,3,4-thiadiazol-2-yl)methyl)-1-(pyridin-3-yl)-1H-1,2,3-triazole-4-carboxamide] | 0.705
Cc1ccc(-n2cc(C(=O)NCc3ccc(-c4ccccc4F)nn3)nn2)c(C)n1 [Example 116, 1-(2,6-dimethylpyridin-3-yl)-N-((6-(2-fluorophenyl)pyridazin-3-yl)methyl)-1H-1,2,3-triazole-4-carboxamide] | 0.074
Cc1ccc(-n2cc(C(=O)NCc3ccc(-n4ccnn4)nn3)nn2)c(C)n1 (single isomer, unassigned) [Example 345, N-((6-(1H-1,2,3-triazol-1-yl)pyridazin-3-yl)methyl)-1-(2,6-dimethylpyridin-3-yl)-1H-1,2,3-triazole-4-carboxamide] | 0.175

SMILES | EC50 [µM]
O=C(NCc1nnc(-c2ccccc2)s1)c1cn([C@@H]2C[C@@H]2C(F)F)nn1 (single isomer, unassigned) [Example 146, cis-1-(-2-(difluoromethyl)cyclopropyl]-N-[(5-phenyl-1,3,4-thiadiazol-2-yl)methyl]-1H-1,2,3-triazole-4-carboxamide] | 0.244
Cc1ccc(-n2cc(C(=O)NCc3cc(-c4ccccc4)on3)nn2)c(C)n1 [Example 237, 1-(2,6-dimethylpyridin-3-yl)-N-((5-phenylisoxazol-3-yl)methyl)-1H-1,2,3-triazole-4-carboxamide] | 0.007
Cc1ccc(-n2cc(C(=O)NCc3nnc(-c4ccccc4)s3)nn2)c(Br)n1 [Example 279, 1-(2-bromo-6-methylpyridin-3-yl)-N-((5-phenyl-1,3,4-thiadiazol-2-yl)methyl)-1H-1,2,3-triazole-4-carboxamide] | 0.008
Cc1cc(C(=O)NCc2nnc(-c3ccccc3)s2)ns1 [Example 260, 5-methyl-N-((5-phenyl-1,3,4-thiadiazol-2-yl)methyl)isothiazole-3-carboxamide] | 0.069
CC(C)Cc1cc(C(=O)NCc2nnc(-c3ccccc3)s2)[nH]n1 [Example 21, 3-isobutyl-N-((5-phenyl-1,3,4-thiadiazol-2-yl)methyl)-1H-pyrazole-5-carboxamide] | 0.209
O=C(NCc1nnc(-c2ccccc2)s1)c1cn(C2CC(CO)(CO)C2)nn1 [Example 175, 1-(3,3-bis(hydroxymethyl)cyclobutyl)-N-((5-phenyl-1,3,4-thiadiazol-2-yl)methyl)-1H-1,2,3-triazole-4-carboxamide] | 0.08
O=C(NCc1nnc(-c2ccccc2)s1)c1cn([C@@H]2CCC[C@H]2O)nn1 [Example 210, 1-((1R,2R)-2-hydroxycyclopentyl)-N-((5-phenyl-1,3,4-thiadiazol-2-yl)methyl)-1H-1,2,3-triazole-4-carboxamide] | 0.109
Cc1c(C(=O)NCc2nnc(-c3ccccc3)s2)oc2ccccc12 [Example 53, 3-methyl-N-[(5-phenyl-1,3,4-thiadiazol-2-yl)methyl]benzofuran-2-carboxamide] | 0.357
CC(C)Cn1cc(C(=O)NCc2nnc(-c3ccccc3)s2)nn1 [Example 88, 1-isobutyl-N-((5-phenyl-1,3,4-thiadiazol-2-yl)methyl)-1H-1,2,3-triazole-4-carboxamide] | 0.013
CC(C)(O)Cn1cc(C(=O)NCc2nnc(-c3ccccc3)s2)nn1 [Example 201, 1-(2-hydroxy-2-methylpropyl)-N-((5-phenyl-1,3,4-thiadiazol-2-yl)methyl)-1H-1,2,3-triazole-4-carboxamide] | 0.226
O=C(NCc1cc(-c2ccccc2)on1)c1cn(CC(F)F)nn1 [Example 292, 1-(2,2-difluoroethyl)-N-((5-phenylisoxazol-3-yl)methyl)-1H-1,2,3-triazole-4-carboxamide] | 0.005
Cc1ccc(-n2cc(C(=O)NCc3ccc(-c4ccccc4Cl)nn3)nn2)c(C)n1 [Example 119, N-((6-(2-chlorophenyl)pyridazin-3-yl)methyl)-1-(2,6-dimethylpyridin-3-yl)-1H-1,2,3-triazole-4-carboxamide] | 0.482
C[C@@H](C(F)F)n1cc(C(=O)NCc2nnc(-c3ccccc3)s2)nn1 [Example 167, (S)-1-(1,1-difluoropropan-2-yl)-N-((5-phenyl-1,3,4-thiadiazol-2-yl)methyl)-1H-1,2,3-triazole-4-carboxamide] | 0.007
CC(C#N)n1cc(C(=O)NCc2nnc(-c3ccccc3)s2)nn1 (stereo not shown) [Example 73, 1-(1-cyanoethyl)-N-((5-phenyl-1,3,4-thiadiazol-2-yl)methyl)-1H-1,2,3-triazole-4-carboxamide] | 0.009
O=C(NCc1nnc(-c2ccccc2)s1)c1cn(CCC(F)F)nn1 [Example 171, 1-(3,3-difluoropropyl)-N-((5-phenyl-1,3,4-thiadiazol-2-yl)methyl)-1H-1,2,3-triazole-4-carboxamide] | 0.01
Cc1ccc(-n2cc(C(=O)NCc3ccc(-c4cccc(F)c4F)nn3)nn2)c(C)n1 [Example 117, N-((6-(2,3-difluorophenyl)pyridazin-3-yl)methyl)-1-(2,6-dimethylpyridin-3-yl)-1H-1,2,3-triazole-4-carboxamide] | 0.692
O=C(NCc1nnc(-c2ccccc2)s1)c1cn(CC(O)C(F)F)nn1 (single isomer, unassigned) [Example 139, 1-(3,3-difluoro-2-hydroxypropyl)-N-((5-phenyl-1,3,4-thiadiazol-2-yl)methyl)-1H-1,2,3-triazole-4-carboxamide] | 0.123
